The source of these data is US5919374A, “Method of disinfecting water with iodine species” (Iosolutions Incorporated, priority 1997, dated 1999).

One series has as its system viruses. To be noted: higher pHs, e.g. 7-10; cited from earlier work.
The conditions of series [1]: above pH 8, especially in the presence of dissolved iodides; Chang (1); cited from earlier work.
The nature of series [2]: Concentration of iodine species in water leaving the crystalline iodine generators. The format is physicochemical. To be noted: pH 6-8, flow about 200 ml/minute. The procedure: Artesian water is fed through inlet conduit 8 past shut-off valve 10 through preconditioner 12 at a flow rate of not less than 2 l. per minute and not more than about 50 l. per minute preferably on average about 10 l. per minute at a pH 6-8, […] Main flow water passes through conduit 14 where some of the main flow is diverted to iodine generator assembly 15 through conduit 16 at a flow rate of about 200 ml/minute. The rest of the main flow flows through flow restrictor disk 20 such that an absolute pressure drop of about 2 psi is generated across flow restrictor disk 20. Flow restrictor 20 governs the rate of flow of diverted main flow which ultimately reaches iodine generator assembly 15. The main flow now proceeds through flow switch 22, such that, at a pre-set flow rate exceeding 2 l per minute, the flow switch 22 generates an electrical impulse which is fed to dual action solenoid valve 24. Such an impulse is continuous and causes solenoid valve 24 to open and remain so, as long as the flow rate is maintained above 2 l per minute. The rest of the main flow continues through conduit 14 uninterrupted until iodine liquor is blended back into the main flow at iodine species liquor injection port 44. […]

The subject of series [3] is E. coli fecal streptococci. To be noted: cited from earlier work.
The next series relates to E. coli. Conditions: cited from earlier work.
For series [4], the system named is chickens. In words: Safe consumption of residual iodine by chickens.
For another series, the system named is bacteria. Conditions: pHs 5-7; cited from earlier work.
The conditions of series [5]: crystalline iodine in water; cited from earlier work.
Series [6] has as its system chickens. Conditions: cited from earlier work.

Like-named read-outs stand apart in the source and are kept apart here.

Take `OI` [HOI, hypoiodous acid]: the virucidal action result with viruses is “efficient virucide”. Further, in series [1], the “decomposition to iodide and iodate ions” value is listed as “decomposes slowly”.
Consider `II` [iodine], for which the “concentration of iodine species concentrate” value in series [2] (first iodine generator, about 20° C.) is 200-240 ppm. In addition, the “concentration of resultant (saturated) iodine liquor” value in series [2] (second iodine generator, about 28° C.) is reported as 280-320 ppm. Also, the “% Kill” value in series [3] (Black et al., 1968, 18 C., contact time 1 min, 0.5 ppm I2) was 99.99%; in series [3] (Ellis et al., 1989, 20 C., contact time 30 min, avg. 4 ppm I2) it was 99.99%; with E. coli it was 99.99%. In addition, in the series with E. coli, the “concentration by which E coli is effectively killed” value is on record as 1-10 ppm. Further, in the series with chickens [4], the “concentration of residual iodine chickens could safely consume” value is “about 2 ppm”. In addition, in the series on bacteria, the antibacterial action entry is “exhibits antibacterial action”. For the same compound, the “solubility in water versus temperature” value in series [5] is recorded as “directly proportional to the temperature of the water”. Moreover, the LD50 entry in the series on chickens [6] is on record as “about 625 ppm”.
